Measurements as given in patent EP2496579B1 (priority 2009, dated 2011).

Key:
[1] = biological target: human α4β2 neuronal nicotinic receptor (Homo sapiens, UniProt P17787+P43681); experiment: Neuronal nicotinic receptor (α-BGTX-insensitive) (agonist radioligand) binding assay; conditions: test compound at 1 µmole; 0.6 nM [3H]cytisine; transfected SH-SY5Y cells; inhibition of control radioligand specific binding; one single experiment; read-out: % inhibition, N neuronal alpha-BGTX-insensitive (alpha4beta 2) (agonist radioligand)
Source text: (§1) Four illustrative compounds of this invention have each been tested at a concentration of 1 µmole in a series of 6 binding assays for various […], including dopaminic receptors, neuronal nicotinic receptors and muscular nicotinic receptors. Details of each binding assay procedure are given below.
Neuronal nicotinic receptor (α-BGTX-insensitive) (agonists radioligand):
The purpose is to evaluate the affinity of compounds for the human α4β2 neuronal nicotinic receptor expressed in transfected SH-SY5Y cells, determined in a radioligand binding assay according to Gopalakrishnan et al in J. Pharmacol. Exp. Ther. (1996) 276:289. The experimental protocol is as follows. Cell membrane homogenates (30 µg protein) are incubated for 120 min at 4°C with 0.6 nM [^3H]cytisine in the absence or presence of the test compound in a buffer containing 50 mM Tris-HCl (pH 7.4), 120 mM NaCl, 5 mM KCI, 2.5 mM CaCl2 and 1 mM MgCl2. Nonspecific binding is determined in the presence of 10 µM nicotine bitartrate. Following incubation, the samples are filtered rapidly under vacuum through glass fiber filters (GF/B, Packard) presoaked with 0.3% PEI and rinsed several times with ice-cold 50 mM Tris-HCl using a 96-sample cell harvester (Unifilter, Packard). The filters are dried then counted for radioactivity in a scintillation counter (Topcount, Packard) using a scintillation cocktail (Microscint 0, Packard). The results are expressed as a percent inhibition of the control radioligand specific binding. The standard reference compound is nicotine bitartrate, which is tested in each experiment at several concentrations to obtain a competition curve from which its IC50 is calculated, and from which the % inhibition at 1 µM as indicated in the following table is obtained.

[2] = biological target: T1, agonist site of the human dopamine D5 receptor (Homo sapiens, UniProt P21918); experiment: Human dopamine D5 receptor (agonist radioligand) binding assay; conditions: test compound at 1 µmole; 7.5 nM [3H]dopamine; transfected GH4 cells; inhibition of control radioligand specific binding; one single experiment
T1 construct: expressed in transfected cells; host or cells: GH4 cells (membrane homogenates)
Source text: as §1
Human dopamine D5 receptor (agonist radioligand):
The purpose is to evaluate the affinity of compounds for the agonist site of the human dopamine D5 receptor in transfected GH4 cells determined in a radioligand binding assay according to Sunahara et al in Nature (1991) 350:614. The experimental protocol is as follows. Cell membrane homogenates (120 µg protein) are incubated for 60 minutes at 22°C with 7.5 nM [^3H]dopamine in the absence or presence of the test compound in a buffer containing 20 mM Tris-HCl (pH 7.4), 5 mM MgCl2, 0.8 mM DTT, 0.3 mM ascorbic acid and 0.1 mM pyrocatechol. Nonspecific binding is determined in the presence of 10 µM SCH 23390. Following incubation, the samples are filtered rapidly under vacuum through glass fiber filters (GF/B, Packard) 55re-soaked with 0.3% PEI and rinsed several times with ice-cold 50 mM Tris-HCl using a 96-sample cell harvester (Unifilter, Packard). The filters are dried then counted for radioactivity in a scintillation counter (Topcount, Packard) using a scintillation cocktail (Microscint 0, Packard). The results are expressed as a percent inhibition of the control radioligand specific binding. The standard reference compound is dopamine, which is tested in each experiment at several concentrations to obtain a competition curve from which its IC50 is calculated, and from which the % inhibition at 1 µM as indicated in the following table is obtained.

[3] = biological target: human α7 neuronal nicotinic receptor (Homo sapiens, UniProt P36544); experiment: biochemical; assay type: binding; conditions: read-out: % inhibition, N neuronal alpha -BGTX-sensitive (alpha 7) (antagonist radioligand)
[4] = biological target: human muscle-type nicotinic receptor (Homo sapiens, UniProt P02708+P07510+Q07001); experiment: biochemical; assay type: binding; conditions: read-out: % inhibition, N muscle-type (h) (antagonist radioligand)
[5] = biological target: T2, human dopamine D1 receptor (Homo sapiens, UniProt P21728); experiment: Human dopamine D1 receptor (antagonist radioligand) binding assay; conditions: test compound at 1 µmole; 0.3 nM [3H]SCH 23390; transfected CHO cells; inhibition of control radioligand specific binding; one single experiment
T2 construct: expressed in transfected cells; host or cells: CHO cells (membrane homogenates)
Source text: as §1
Human dopamine D1 receptor (antagonist radioligand):
The purpose is to evaluate the affinity of compounds for the human dopamine D1 receptor in transfected CHO cells determined in a radioligand binding assay according to Zhou et al in Nature (1990) 347:76. The experimental protocol is as follows. Cell membrane homogenates (48 µg protein) are incubated for 60 minutes at 22°C with 0.3 nM [^3H]SCH 23390 in the absence or presence of the test compound in a buffer containing 50 mM Tris-HCl (pH 7.4), 5 mM KCI, 5 mM MgCl2, 1.5 mM CaCl2 and 5 mM EDTA. Non-specific binding is determined in the presence of 1 µM SCH 23390. […] The filters are dried then counted for radioactivity in a scintillation counter (Topcount, Packard) using a scintillation cocktail (Microscint 0, Packard). The results are expressed as a percent inhibition of the control radioligand specific binding. […]

[6] = biological target: T3, Human dopamine D5 receptor (Homo sapiens, UniProt P21918); experiment: Human dopamine D5 receptor (antagonist radioligand) binding assay; conditions: test compound at 1 µmole; 0.3 nM [3H]SCH 23390; transfected GH4 cells; inhibition of control radioligand specific binding; one single experiment
T3 construct: expressed in transfected cells; host or cells: GH4 cells (membrane homogenates)
Source text: as §1
Human dopamine D5 receptor (antagonist radioligand):
The purpose is to evaluate the affinity of compounds for the human dopamine […] in transfected GH4 cells determined in a radioligand binding assay according to Sunahara et al in Nature (1991) 350:614. The experimental protocol is as follows. Cell membrane homogenates (20 µg protein) are incubated for 60 minutes at 22°C with 0.3 nM [^3H]SCH 23390 in the absence or presence of the test compound in a buffer containing 50 mM Tris-HCl (pH 7.4), 120 mM NaCl, 5 mM KCI, 5 mM MgCl2 and 1 mM EDTA. Nonspecific binding is determined in the presence of 10 µM SCH 23390. […] The filters are dried then counted for radioactivity in a scintillation counter (Topcount, Packard) using a scintillation cocktail (Microscint 0, Packard). The results are expressed as a percent inhibition of the control radioligand specific binding. […]

[7] = relative to morphine; background statement; cited from earlier work

human α4β2 neuronal nicotinic receptor, sequence (P43681 29-627 limits assumed): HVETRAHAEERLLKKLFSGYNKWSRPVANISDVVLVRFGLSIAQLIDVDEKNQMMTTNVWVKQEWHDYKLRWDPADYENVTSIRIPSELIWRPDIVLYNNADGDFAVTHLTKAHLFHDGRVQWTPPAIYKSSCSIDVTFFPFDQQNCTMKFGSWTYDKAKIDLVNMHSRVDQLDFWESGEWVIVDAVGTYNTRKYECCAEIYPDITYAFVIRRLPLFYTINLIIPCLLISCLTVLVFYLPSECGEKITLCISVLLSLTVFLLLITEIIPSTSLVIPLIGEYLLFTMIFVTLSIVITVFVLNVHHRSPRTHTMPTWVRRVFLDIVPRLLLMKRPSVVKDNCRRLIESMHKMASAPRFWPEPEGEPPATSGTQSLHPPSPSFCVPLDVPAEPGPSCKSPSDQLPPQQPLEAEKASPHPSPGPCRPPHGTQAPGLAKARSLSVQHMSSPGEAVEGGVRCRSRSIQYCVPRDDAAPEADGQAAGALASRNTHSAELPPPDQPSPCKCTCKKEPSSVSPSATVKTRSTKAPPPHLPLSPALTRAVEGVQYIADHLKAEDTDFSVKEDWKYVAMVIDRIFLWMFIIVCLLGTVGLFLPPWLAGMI
human α4β2 neuronal nicotinic receptor, sequence (P17787 26-502): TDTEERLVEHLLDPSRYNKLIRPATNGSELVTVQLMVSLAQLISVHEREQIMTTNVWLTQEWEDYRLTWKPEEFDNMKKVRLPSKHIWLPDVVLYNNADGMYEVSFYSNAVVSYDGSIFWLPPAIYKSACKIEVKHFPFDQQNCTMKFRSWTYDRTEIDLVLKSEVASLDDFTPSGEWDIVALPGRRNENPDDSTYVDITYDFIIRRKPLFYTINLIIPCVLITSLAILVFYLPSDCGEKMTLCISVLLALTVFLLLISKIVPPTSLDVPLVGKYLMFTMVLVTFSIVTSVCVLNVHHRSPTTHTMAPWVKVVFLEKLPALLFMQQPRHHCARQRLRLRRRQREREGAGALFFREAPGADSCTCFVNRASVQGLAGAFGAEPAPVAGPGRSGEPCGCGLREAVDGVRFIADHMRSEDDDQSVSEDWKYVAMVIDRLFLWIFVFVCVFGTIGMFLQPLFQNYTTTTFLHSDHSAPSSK
human muscle-type nicotinic receptor, sequence (P02708 21-457): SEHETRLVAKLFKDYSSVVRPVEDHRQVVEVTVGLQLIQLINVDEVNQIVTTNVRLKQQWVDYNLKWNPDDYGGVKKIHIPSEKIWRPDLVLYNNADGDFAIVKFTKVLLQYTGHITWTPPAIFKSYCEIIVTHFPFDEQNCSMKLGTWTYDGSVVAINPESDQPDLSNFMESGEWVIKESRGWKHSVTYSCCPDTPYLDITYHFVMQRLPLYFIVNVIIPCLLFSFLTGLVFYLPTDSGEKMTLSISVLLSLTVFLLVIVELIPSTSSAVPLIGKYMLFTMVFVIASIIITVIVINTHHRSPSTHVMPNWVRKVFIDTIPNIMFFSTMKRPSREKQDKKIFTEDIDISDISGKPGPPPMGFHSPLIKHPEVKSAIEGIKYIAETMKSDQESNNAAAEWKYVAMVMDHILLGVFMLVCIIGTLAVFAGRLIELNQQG
human muscle-type nicotinic receptor, sequence (P07510 23-517): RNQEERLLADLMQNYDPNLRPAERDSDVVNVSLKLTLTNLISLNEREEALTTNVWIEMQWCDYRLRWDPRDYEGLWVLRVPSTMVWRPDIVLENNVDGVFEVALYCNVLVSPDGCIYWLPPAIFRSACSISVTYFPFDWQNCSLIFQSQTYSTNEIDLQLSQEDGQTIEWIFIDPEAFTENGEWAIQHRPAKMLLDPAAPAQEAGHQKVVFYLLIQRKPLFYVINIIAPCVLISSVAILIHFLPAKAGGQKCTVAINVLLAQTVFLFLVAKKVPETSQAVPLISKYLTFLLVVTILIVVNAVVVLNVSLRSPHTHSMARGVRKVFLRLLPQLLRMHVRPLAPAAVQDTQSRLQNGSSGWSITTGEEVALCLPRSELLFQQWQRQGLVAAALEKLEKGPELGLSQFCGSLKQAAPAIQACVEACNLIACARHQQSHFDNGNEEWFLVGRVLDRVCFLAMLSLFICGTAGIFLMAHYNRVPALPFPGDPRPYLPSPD
human muscle-type nicotinic receptor, sequence (P11230 24-501, further chain): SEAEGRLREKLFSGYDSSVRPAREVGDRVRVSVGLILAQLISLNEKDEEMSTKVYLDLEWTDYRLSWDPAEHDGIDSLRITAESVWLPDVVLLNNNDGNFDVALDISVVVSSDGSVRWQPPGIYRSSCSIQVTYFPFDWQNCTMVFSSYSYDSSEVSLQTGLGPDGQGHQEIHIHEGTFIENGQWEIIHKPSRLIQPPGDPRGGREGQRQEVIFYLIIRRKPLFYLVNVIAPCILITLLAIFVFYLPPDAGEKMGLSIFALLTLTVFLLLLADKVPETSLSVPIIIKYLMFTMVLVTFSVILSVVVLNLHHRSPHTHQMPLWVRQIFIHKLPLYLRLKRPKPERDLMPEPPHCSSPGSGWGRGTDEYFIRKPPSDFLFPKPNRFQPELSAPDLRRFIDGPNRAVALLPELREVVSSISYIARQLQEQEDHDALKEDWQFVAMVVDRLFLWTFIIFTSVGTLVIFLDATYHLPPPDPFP
human muscle-type nicotinic receptor, sequence (Q07001 22-517): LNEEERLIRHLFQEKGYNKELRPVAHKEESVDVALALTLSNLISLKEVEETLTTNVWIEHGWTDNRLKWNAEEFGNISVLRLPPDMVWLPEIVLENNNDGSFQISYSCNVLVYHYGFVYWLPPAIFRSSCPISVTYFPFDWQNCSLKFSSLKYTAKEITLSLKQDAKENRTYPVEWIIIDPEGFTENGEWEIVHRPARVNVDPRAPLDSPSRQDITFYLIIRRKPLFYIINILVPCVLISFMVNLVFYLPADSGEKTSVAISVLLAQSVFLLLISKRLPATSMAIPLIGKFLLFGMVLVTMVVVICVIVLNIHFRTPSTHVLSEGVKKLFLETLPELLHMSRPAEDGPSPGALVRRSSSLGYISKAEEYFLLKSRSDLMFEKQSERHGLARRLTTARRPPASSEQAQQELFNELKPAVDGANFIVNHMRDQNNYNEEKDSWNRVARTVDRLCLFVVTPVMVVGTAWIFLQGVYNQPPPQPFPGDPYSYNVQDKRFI
T1 sequence (P21918 whole entry): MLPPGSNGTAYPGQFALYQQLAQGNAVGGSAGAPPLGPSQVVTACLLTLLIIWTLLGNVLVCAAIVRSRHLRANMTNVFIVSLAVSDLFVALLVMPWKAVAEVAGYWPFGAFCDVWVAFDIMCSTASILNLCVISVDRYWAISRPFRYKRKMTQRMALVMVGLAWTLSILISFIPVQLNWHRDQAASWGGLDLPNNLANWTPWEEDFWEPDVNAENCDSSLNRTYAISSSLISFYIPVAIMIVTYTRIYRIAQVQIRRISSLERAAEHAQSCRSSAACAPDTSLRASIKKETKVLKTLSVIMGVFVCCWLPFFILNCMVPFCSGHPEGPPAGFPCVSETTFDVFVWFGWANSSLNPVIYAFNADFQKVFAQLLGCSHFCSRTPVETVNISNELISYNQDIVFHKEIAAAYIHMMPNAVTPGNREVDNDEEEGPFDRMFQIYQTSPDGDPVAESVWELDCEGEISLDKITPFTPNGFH
human α7 neuronal nicotinic receptor, sequence (P36544 23-502): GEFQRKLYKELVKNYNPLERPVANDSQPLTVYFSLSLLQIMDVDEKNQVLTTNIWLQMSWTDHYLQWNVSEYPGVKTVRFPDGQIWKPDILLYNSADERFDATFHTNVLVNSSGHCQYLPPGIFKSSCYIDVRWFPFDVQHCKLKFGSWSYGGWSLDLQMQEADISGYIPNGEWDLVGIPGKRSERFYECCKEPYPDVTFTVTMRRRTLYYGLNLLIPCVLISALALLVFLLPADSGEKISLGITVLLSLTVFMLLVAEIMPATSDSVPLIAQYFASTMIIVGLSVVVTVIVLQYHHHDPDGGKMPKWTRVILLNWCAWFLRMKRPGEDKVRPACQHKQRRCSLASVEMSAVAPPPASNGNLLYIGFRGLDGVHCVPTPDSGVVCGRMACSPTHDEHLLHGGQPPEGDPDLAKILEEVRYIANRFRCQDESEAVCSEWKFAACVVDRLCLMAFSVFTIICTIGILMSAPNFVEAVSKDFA
T2 sequence (P21728 whole entry): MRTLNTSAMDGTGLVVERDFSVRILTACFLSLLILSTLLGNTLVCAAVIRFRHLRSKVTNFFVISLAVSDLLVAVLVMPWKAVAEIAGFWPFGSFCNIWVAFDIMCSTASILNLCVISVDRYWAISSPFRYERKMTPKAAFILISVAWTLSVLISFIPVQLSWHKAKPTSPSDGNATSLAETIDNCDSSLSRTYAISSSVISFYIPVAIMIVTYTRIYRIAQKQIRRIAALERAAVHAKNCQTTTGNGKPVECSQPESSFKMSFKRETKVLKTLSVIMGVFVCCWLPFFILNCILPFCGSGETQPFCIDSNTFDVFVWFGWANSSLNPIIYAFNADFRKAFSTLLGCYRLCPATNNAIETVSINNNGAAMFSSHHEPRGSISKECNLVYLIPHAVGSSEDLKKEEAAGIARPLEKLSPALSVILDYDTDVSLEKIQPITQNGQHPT
T3 sequence (P21918 whole entry): as the sequence (P21918 whole entry) above

SMILES | inhibition at 1 µM [1] | inhibition at 1 µM [2] | inhibition at 50 pM [3] | inhibition at 0.0005 µM [4] | inhibition at 1 µM [5] | inhibition at 1 µM [6] | analgesic potency, higher than that of morphine [7]
CCN1CCC2CC1(C(=O)c1ccc(Cl)nc1)C2 [Comp.9m] | 4% | -13% | -1% | -8% | – | – | –
OC(c1cccnc1)C12CC(CCN1)C2 (stereo not drawn) [Comp.11] | – | – | -1% | 17% | – | – | –
CCN1CCC2CC1(C(O)c1cccnc1)C2 (stereo not drawn) [Comp.19a] | 24% | -2% | 3% | 33% | 9% | – | –
NCC12CC(CCN1Cc1ccccn1)C2 [Comp.20] | 11% | 6% | 12% | 32% | -3% | 31% | –
Clc1ccc(C2CC3CCC2N3)cn1 (stereo not drawn) [epibatidine] | – | – | – | – | – | – | about 200 fold
